Source: the NIST ThermoML archive (doi:10.1016/j.jct.2019.06.007)
± gives the expanded uncertainty stated by the source.

Details: Crystal; DTA

- Normal melting temperature: 159.90 ± 1.1 °C
SMILES: Cn1c(=O)c2c(ncn2CC(O)CO)n(C)c1=O (stereo unspecified)
